From PubChem BioAssay (NCI)
Values joined by “and” are separate entries in the source; they are usually repeats but may differ in a detail not shown here. Equal values may be shown once.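 Protocol summary: plate cells (96-well), add compound at 5 concentrations, incubate 48 h, interpolate endpoints linearly. GI50 is the concentration that inhibits growth by half. Definition used: TGI = concentration required for complete inhibition of growth.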

What was measured:
Assay in all cases: DTP human tumour cell line panel, 48 h
COLO 205 colon = test system: COLO 205 colon
DLD-1 colon = test system: DLD-1 colon
DMS 273 small cell lung = test system: DMS 273 small cell lung
HOP-92 NSCLC = test system: HOP-92 NSCLC
HS 578T breast = test system: HS 578T breast
K-562 leukemia = test system: K-562 leukemia
KM20L2 colon = test system: KM20L2 colon
LXFL 529 NSCLC = test system: LXFL 529 NSCLC
M14 melanoma = test system: M14 melanoma
MDA-N = test system: MDA-N
OVCAR-4 ovarian = test system: OVCAR-4 ovarian
SNB-78 CNS = test system: SNB-78 CNS
A498 renal = test system: A498 renal

Row | SMILES | TGI (COLO 205 colon) | TGI (DLD-1 colon) [µM] | TGI (DMS 273 small cell lung) | TGI (HOP-92 NSCLC) | TGI (HS 578T breast) [µM] | TGI (K-562 leukemia) | TGI (KM20L2 colon) | TGI (LXFL 529 NSCLC) | TGI (M14 melanoma) | TGI (MDA-N) [µM] | TGI (OVCAR-4 ovarian) | TGI (SNB-78 CNS) [µM] | TGI (A498 renal) [µM] | GI50 (HOP-92 NSCLC) [µM] | GI50 (HS 578T breast) [µM] | GI50 (A498 renal) | GI50 (COLO 205 colon) | GI50 (DMS 273 small cell lung)
1 | Cc1ccc(C(=O)N(C(C)C)C(C)C)cc1N=NN(C)C | > 100 µM | > 100 | > 100 µM | > 100 µM | > 100 | > 100 µM | > 100 µM | > 100 µM | > 100 µM | > 100 | > 100 µM | > 100 | – | – | – | – | – | –
2 | CN1CCn2c(Br)ccc2C1=O | > 100 µM | – | > 100 µM | – | – | > 100 µM | > 100 µM | > 100 µM | > 100 µM | – | > 100 µM | > 100 | > 100 | – | – | – | – | –
3 | O=c1[nH]c(=O)n(C2OC(COP(=O)(O)OP(=O)(O)O)C(O)C2O)cc1F (stereo not given) | > 50 µM | > 50 | > 50 µM | > 50 µM | – | > 50 µM | > 50 µM | > 50 µM | > 50 µM | – | > 26.3 µM | > 50 | > 50 | – | – | – | – | –
4 | C/C(=N\NC(N)=O)C(CN1CCCCC1)C(c1ccccc1)c1c(O)c2ccccc2oc1=O (stereo not given) | > 100 µM | > 100 | > 100 µM | > 100 µM | > 100 | > 100 µM | > 100 µM | > 100 µM | > 100 µM | – | > 100 µM | > 100 | > 100 | 21.6 | 79.4 | – | – | –
5 | CCOC(=O)C(C)(C)Oc1ccc2c(=O)cc(-c3ccccc3)oc2c1 | 36.8 µM | – | – | – | – | 31.2 µM | 52.1 µM | 35.7 µM | 36.3 µM | – | – | 71.8 | > 100 | – | – | – | – | –
6 | COc1cccc(NC(=O)CSc2nnc(-c3ccc(N=Cc4ccc(Cl)cc4)cc3)o2)c1 | 41.4 µM | – | – | – | – | > 100 µM | 30.6 µM | 50.2 µM | 47 µM | – | > 100 µM | > 100 | – | – | – | – | – | –
7 | COc1cc([C@@H]2c3cc4c(cc3[C@@H](NC(=O)c3ccc(N)cc3)C3COC(=O)[C@@H]32)OCO4)cc(OC)c1O (stereo not given in full) | 28.4 µM | 35.4 | 16.3 µM | > 100 µM | – | 37.7 µM | 9.57 µM | > 100 µM | > 100 µM | – | > 100 µM | – | 11.8 | – | – | – | – | –
8 | NC(Cc1cc(I)c(O)c(I)c1)C(=O)O (stereo not given) | > 500 µM | > 500 | > 322 µM | > 107 µM | – | > 500 µM | > 500 µM | – | – | – | 332 µM | > 500 | > 500 | – | – | – | – | –
9 | Cc1nnc2cc(C(=O)O)c3ccccc3n2c1=O | > 10 µM | – | – | > 10 µM | > 10 | > 10 µM | – | – | > 10 µM | > 10 | > 10 µM | – | > 10 | – | – | – | – | –
10 | O=C(C1=C(C(=O)c2ccccc2)SC2(S1)C(C(=O)c1ccccc1)=C(C(=O)c1ccccc1)Sc1c2ssc1=O)c1ccccc1 | > 100 µM | – | – | > 100 µM | > 100 | > 100 µM | – | – | > 100 µM | > 100 | > 100 µM | – | 31.2 | – | – | – | – | –
11 | CCOc1ccc2[nH]c3c(C)c4cc[n+](C)cc4c(C)c3c2c1 | 2.62 µM and 4.69 µM | > 100 | 6.33 µM and 13.8 µM | 13.1 µM and 25.3 µM | – | 24.5 µM and 18.3 µM | 47.8 µM and > 96.8 µM | 1.54 µM and 3.6 µM | 30.5 µM and 58.5 µM | – | 15.2 µM and 26.2 µM | > 100 | > 100 | – | – | 11.1 µM and 48 µM | 0.791 µM and 1.6 µM | 0.651 µM and 1.33 µM
12 | CC(=O)O[C@H]1C#C/C=C\C#CC[C@@H]2C(=O)N(C(=O)OC(C)(C)C)[C@@H]12 | > 100 µM | – | – | 96.8 µM | > 88.7 | > 100 µM | – | – | > 100 µM | > 100 | > 100 µM | – | > 100 | – | – | – | – | –
13 | OC1CCCC1C(O)(C(F)(F)F)C(F)(F)F (stereo not given) | > 100 µM | – | – | > 100 µM | > 100 | > 100 µM | – | – | > 100 µM | > 100 | > 100 µM | – | > 100 | – | – | – | – | –
